Measured values taken from patent publication US20070149404A1, “Microbicidal compositions” (BASF AKTIENGESELLSCHAFT, priority 2003, published 2007).
Counter-ions that a name gives are not always drawn.

Tests used:
algae = assay: Efficacy against algal growth on painted plaster surface (BBA MOAT 33); assay type: cell-based; settings: 0.5% in paint
Method: (§1) Testing was performed according to the BS3900 G6 and BBA MOAT 33 methods for evaluation versus fungi and algae, respectively. The methods involve painting a substrate panel with the coating and leaching under running water for 72 hours. The substrates are incubated for 56 days after being inoculated with fungi or algae. Performance is judged by comparing with suitable control samples ie without biocide, a positive control and for fungi with substrate panels that have not been leached.
(§2) Performance rating on painted test substrates (Score of 0, 1 and 2 is considered as a pass) • 0=no growth • 1=trace of growth • 2=growth on 1-10% of test face • 3=growth on 10-30% of test face • 4=growth on 30-70% of test face
(§3) 5=growth on 70-100% of test face.

fungi [1] = assay: Efficacy against fungal growth on painted wooden surface (BS3900 G6); assay type: cell-based; settings: 0.5% in paint
Method: as §1, §2, §3

Micrococcus luteus = assay: Intrinsic activity, microtitre plate method, ML; assay type: cell-based; design: key: rating 0 = no activity to 5 = biostatic, may be biocide
Method: (§4) The chemistries were tested for their activity against a range of organisms via a microtitre plate method. The test organisms were: • ML—Micrococcus luteus • SA—Staphylococcus aureus • EC—Escherichia coli • PA—Pseudomonas aeruginosa • CF—Citrobacter freundii • PM—Proteus mirabilis • CA—Candida albicans • SC—Saccharomyces cerevisiae • AN—Aspergillus niger • PF—Penicillium funiculosum • AA—Alternaria alternata
(§5) Using the following rating scale: • 0=no activity • 1=minimal inhibition • 2=inhibition • 3=clear inhibition • 4=clear inhibition biostatic, may be biocide activity • 5=biostatic, may be biocide activity
(§6) Readings of 4 and possibly 3 were considered to be valid for biocidal applications.

Staphylococcus aureus = assay: Intrinsic activity, microtitre plate method, SA; assay type: cell-based; design: key: 0 = no activity to 5 = biostatic, may be biocide activity
Method: as §4, §5, §6

Escherichia coli = assay: Intrinsic activity, microtitre plate method, EC; assay type: cell-based; design: key: rating 0 = no activity to 5 = biostatic, may be biocide
Method: as §4, §5, §6

Pseudomonas aeruginosa = assay: Intrinsic activity, microtitre plate method, PA; assay type: cell-based; design: key: rating 0 = no activity to 5 = biostatic, may be biocide
Method: as §4, §5, §6

Citrobacter freundii = assay: Intrinsic activity, microtitre plate method, CF; assay type: cell-based; design: key: rating 0 = no activity to 5 = biostatic, may be biocide
Method: as §4, §5, §6

Proteus mirabilis = assay: Intrinsic activity, microtitre plate method, PM; assay type: cell-based; design: key: rating 0 = no activity to 5 = biostatic, may be biocide
Method: as §4, §5, §6

Bacteria = assay: Intrinsic activity, microtitre plate method, mean score over bacteria; assay type: cell-based, ML, SA, EC, PA, CF, PM; settings: performance against organisms/no of organisms, 0 to <3 poor, >3 inhibition, >4 biostasis, biocidal activity
Method: as §4, §5, §6

Candida albicans = assay: Intrinsic activity, microtitre plate method, CA; assay type: cell-based; design: key: rating 0 = no activity to 5 = biostatic, may be biocide
Method: as §4, §5, §6

Saccharomyces cerevisiae = assay: Intrinsic activity, microtitre plate method, SC; assay type: cell-based; design: key: rating 0 = no activity to 5 = biostatic, may be biocide
Method: as §4, §5, §6

Aspergillus niger = assay: Intrinsic activity, microtitre plate method, AN; assay type: cell-based; design: key: rating 0 = no activity to 5 = biostatic, may be biocide
Method: as §4, §5, §6

Penicillium funiculosum = assay: Intrinsic activity, microtitre plate method, PF; assay type: cell-based; design: key: rating 0 = no activity to 5 = biostatic, may be biocide
Method: as §4, §5, §6

Alternaria alternata = assay: Intrinsic activity, microtitre plate method, AA; assay type: cell-based; design: key: rating 0 = no activity to 5 = biostatic, may be biocide
Method: as §4, §5, §6

Fungi [2] = assay: Intrinsic activity, microtitre plate method, mean score over fungi; assay type: cell-based, CA, SC, AN, PF, AA; settings: performance against organisms/no of organisms, 0 to <3 poor, >3 inhibition, >4 biostasis, biocidal activity
Method: as §4, §5, §6

test bacteria and fungi = assay: Intrinsic activity against bacteria and fungi, microtitre plate method, summary in words; assay type: cell-based; settings: for Activity against the test bacteria and fungi: 1000 and 500 ppm a.i.
Method: as §4, §5, §6

## CCOCn1c(-c2ccc(Cl)cc2)c(C#N)c(Br)c1C(F)(F)F [Chlorfenapyr, 4-Brom-2-(p-chlorphenyl)-1-(ethoxymethyl)-5-(tri-fluormethyl)-pyrrole-3-carbonitril]
algae; painted plaster, leached 72 hours, 28 days after inoculation, mean of ratings 0-5
  MEAN ALGAL GROWTH RATING 28 days: 3 (3=growth on 10-30% of test face)
algae; painted plaster, leached 72 hours, 56 days after inoculation, mean of ratings 0-5
  MEAN ALGAL GROWTH RATING 56 days: 3.5
algae; painted plaster, versus unpreserved paint, 56 days
  % Improved after 56 days (algal growth): 12.5%
algae; plaster
  Improvement against algal growth on the plaster surface: exhibited an improvement
Fungi [1]
  Improvement against fungal growth on the wood surface: exhibited an improvement
Fungi [1]; constant running water for 72 hours, 28 days, mean of ratings 0-5
  MEAN FUNGAL GROWTH RATING - WOOD SUBSTRATE 28 days leached: 3 (3=growth on 10-30% of test face)
Fungi [1]; constant running water for 72 hours, 56 days, mean of ratings 0-5
  MEAN FUNGAL GROWTH RATING - WOOD SUBSTRATE 56 days leached: 3.5
Fungi [1]; leached 72 hours, versus unpreserved paint
  % Improved After 56 days leached (fungal, wood): 12.5%
Fungi [1]; no leaching with water, 28 days, mean of ratings 0-5
  MEAN FUNGAL GROWTH RATING - WOOD SUBSTRATE 28 days as applied: 5 (5=growth on 70-100% of test face)
Fungi [1]; no leaching with water, 56 days, mean of ratings 0-5
  MEAN FUNGAL GROWTH RATING - WOOD SUBSTRATE 56 days as applied: 5 (5=growth on 70-100% of test face)

## CC(Oc1ccc(Cl)cc1Cl)C(=O)O (stereo not shown) [Dichlorprop, 2,4-Dichlorophenoxy-propionic acid]
Micrococcus luteus; 500 ppm a.i.
  ML rating: 5
Micrococcus luteus; 1000 ppm a.i.
  ML rating: 5
Staphylococcus aureus; 500 ppm a.i.
  SA rating: 3
Staphylococcus aureus; 1000 ppm a.i.
  SA rating: 5
Escherichia coli; 500 ppm a.i.
  EC rating: 3
Escherichia coli; 1000 ppm a.i.
  EC rating: 5
Pseudomonas aeruginosa; 500 ppm a.i.
  PA rating: 3
Pseudomonas aeruginosa; 1000 ppm a.i.
  PA rating: 5
Citrobacter freundii; 500 ppm a.i.
  CF rating: 3
Citrobacter freundii; 1000 ppm a.i.
  CF rating: 5
Proteus mirabilis; 500 ppm a.i.
  PM rating: 3
Proteus mirabilis; 1000 ppm a.i.
  PM rating: 5
Bacteria; 500 ppm a.i.
  Bacteria Mean Score: 3.3
Bacteria; 1000 ppm a.i.
  Bacteria Mean Score: 5.0
Candida albicans; 500 ppm a.i.
  CA rating: 2
Candida albicans; 1000 ppm a.i.
  CA rating: 5
Saccharomyces cerevisiae; 500 ppm a.i.
  SC rating: 1
Saccharomyces cerevisiae; 1000 ppm a.i.
  SC rating: 5
Aspergillus niger; 500 ppm a.i.
  AN rating: 5
Aspergillus niger; 1000 ppm a.i.
  AN rating: 5
Penicillium funiculosum; 500 ppm a.i.
  PF rating: 5
Penicillium funiculosum; 1000 ppm a.i.
  PF rating: 5
Alternaria alternata; 500 ppm a.i.
  AA rating: 5
Alternaria alternata; 1000 ppm a.i.
  AA rating: 5
Fungi [2]; 500 ppm a.i.
  Fungi Mean Score: 3.6
Fungi [2]; 1000 ppm a.i.
  Fungi Mean Score: 5.0
Test bacteria and fungi
  Activity against the test bacteria and fungi: good activity

## CCCCCCCCCCCCNC(=N)N [Dodine, 1-dodecylguanidinium hydrochloride or—acetate]
Micrococcus luteus; 500 ppm a.i.
  ML rating: 5
Micrococcus luteus; 1000 ppm a.i.
  ML rating: 5
Staphylococcus aureus; 500 ppm a.i.
  SA rating: 5
Staphylococcus aureus; 1000 ppm a.i.
  SA rating: 5
Escherichia coli; 500 ppm a.i.
  EC rating: 5
Escherichia coli; 1000 ppm a.i.
  EC rating: 5
Pseudomonas aeruginosa; 500 ppm a.i.
  PA rating: 1
Pseudomonas aeruginosa; 1000 ppm a.i.
  PA rating: 3
Citrobacter freundii; 500 ppm a.i.
  CF rating: 5
Citrobacter freundii; 1000 ppm a.i.
  CF rating: 5
Proteus mirabilis; 500 ppm a.i.
  PM rating: 5
Proteus mirabilis; 1000 ppm a.i.
  PM rating: 5
Bacteria; 500 ppm a.i.
  Bacteria Mean Score: 4.3
Bacteria; 1000 ppm a.i.
  Bacteria Mean Score: 4.7
Candida albicans; 500 ppm a.i.
  CA rating: 5
Candida albicans; 1000 ppm a.i.
  CA rating: 5
Saccharomyces cerevisiae; 500 ppm a.i.
  SC rating: 5
Saccharomyces cerevisiae; 1000 ppm a.i.
  SC rating: 5
Aspergillus niger; 500 ppm a.i.
  AN rating: 5
Aspergillus niger; 1000 ppm a.i.
  AN rating: 5
Penicillium funiculosum; 500 ppm a.i.
  PF rating: 5
Penicillium funiculosum; 1000 ppm a.i.
  PF rating: 5
Alternaria alternata; 500 ppm a.i.
  AA rating: 5
Alternaria alternata; 1000 ppm a.i.
  AA rating: 5
Fungi [2]; 500 ppm a.i.
  Fungi Mean Score: 5.0
Fungi [2]; 1000 ppm a.i.
  Fungi Mean Score: 5.0
Test bacteria and fungi
  Activity against the test bacteria and fungi: good activity

## (1RS, 5RS;1RS, 5SR)-5- (4-chlorobenzyl)-2,2-di- methyl-1-(1H-1,2,4-tri- azol-1-ylmethyl)cyclo- pentanol [Metconazole]
Micrococcus luteus; 500 ppm a.i.
  ML rating: 2
Micrococcus luteus; 1000 ppm a.i.
  ML rating: 3
Staphylococcus aureus; 500 ppm a.i.
  SA rating: 1
Staphylococcus aureus; 1000 ppm a.i.
  SA rating: 1
Escherichia coli; 500 ppm a.i.
  EC rating: 0
Escherichia coli; 1000 ppm a.i.
  EC rating: 0
Pseudomonas aeruginosa; 500 ppm a.i.
  PA rating: 0
Pseudomonas aeruginosa; 1000 ppm a.i.
  PA rating: 0
Citrobacter freundii; 500 ppm a.i.
  CF rating: 0
Citrobacter freundii; 1000 ppm a.i.
  CF rating: 0
Proteus mirabilis; 500 ppm a.i.
  PM rating: 0
Proteus mirabilis; 1000 ppm a.i.
  PM rating: 0
Bacteria; 500 ppm a.i.
  Bacteria Mean Score: 0.5
Bacteria; 1000 ppm a.i.
  Bacteria Mean Score: 0.7
Candida albicans; 500 ppm a.i.
  CA rating: 3
Candida albicans; 1000 ppm a.i.
  CA rating: 3
Saccharomyces cerevisiae; 500 ppm a.i.
  SC rating: 3
Saccharomyces cerevisiae; 1000 ppm a.i.
  SC rating: 3
Aspergillus niger; 500 ppm a.i.
  AN rating: 5
Aspergillus niger; 1000 ppm a.i.
  AN rating: 5
Penicillium funiculosum; 500 ppm a.i.
  PF rating: 5
Penicillium funiculosum; 1000 ppm a.i.
  PF rating: 5
Alternaria alternata; 500 ppm a.i.
  AA rating: 5
Alternaria alternata; 1000 ppm a.i.
  AA rating: 5
Fungi [2]; 500 ppm a.i.
  Fungi Mean Score: 4.2
Fungi [2]; 1000 ppm a.i.
  Fungi Mean Score: 4.2
Test bacteria and fungi; at both concentrations (1000 and 500 ppm a.i.)
  Spectrum of activity: only display antifungal activity
